Assays:
HeLa-control cells = assay: TUNEL apoptosis assay with flow cytometry; assay type: cell-based; conditions: 200 nM PMA, 2 hours
Procedure: (§1) Apoptotic assays were performed with annexinV-PE (BD-PharMingen) per manufacturer's protocol. The TUNEL assay (terminal deoxynucleotidyltransferase-mediated dUTP-biotin nick end labeling) was performed according to the manufacturer's protocol (Roche, Switzerland).
(§2) If PLS3 is a direct downstream effector of PKC-δ in the PKC-δ-induced apoptotic pathway, then overexpression of PLS3 might enhance apoptosis induced by PKC-δ activation. HeLa-PLS3 were incubated with phorbol ester PMA, and analyzed for apoptosis with TUNEL assay and flow cytometry.

HeLa-PLS3 cells = assay: TUNEL apoptosis assay with flow cytometry; assay type: cell-based; conditions: 200 nM PMA, 2 hours
Procedure: as §1, §2

mouse liver mitochondria = assay: Cardiolipin transfer assay (NAO fluorescence); assay type: biochemical; conditions: 30 μM NAO, vs buffer or BSA control
Text: Cardiolipin was then investigated since cardiolipin is a mitochondrion-specific phospholipid and is potentially more critical in the process of apoptosis. Because radioactive cardiolipin is not commercially available, NAO was used to quantify cardiolipin in the recipient mitochondria. NAO binds cardiolipin specifically without interference by other phospholipids with a stoichiometry of 1 to 1 or 2 to 1. To achieve maximal NAO saturation, the recipient mitochondria were permeablized and fixed with formaldehyde. A dose titration of NAO was then performed. The red fluorescence achieved a plateau when the NAO concentrations were above 20 μM as reported (Garcia Fernandez et al. 2000). The concentration of 30 μM was thus chosen to determine the total amount of cardiolipin after in vitro cardiolipin transfer assay. […]
Phospholipid transfer assay was modified from Koumanov et al. (Koumanov and Infante 1986). […] Mitochondria were then washed five times with mitochondrial preparation buffer to remove free liposomes and counted by scintillation counter for ^14C activity. For cardiolipin transfer assays, total amounts of cardiolipin were quantified by specific fluorescence with NAO dye. NAO (30 μM) was added to recipient mitochondria, and fluorescence intensity was measured at 590±35 nm by fluorescence microplate reader.

HEK293 cells = assay: UV-induced cytochrome c release, subcellular fractionation and Western blot; assay type: cell-based
Procedure: Subcellular fractionation was performed by differential centrifugation. In brief, […] were incubated in buffer containing 300 mM sucrose, 10 mM Tris (pH 7.5), 5 mM EDTA, 0.1% BSA and 1 mM PMSF protease inhibitor for 5 min on ice. Cells were disrupted by passage through a 25 G needle or dounced for 10 strokes, and then were centrifuged at 1000×g for 5 minutes, 10,000×g for 10 minutes, and 30,000×g for 60 minutes, for collection of intact cells/nuclei, crude mitochondria and microsomes, respectively. The final supernatants were used as cytosols. The mitochondria and the cytosolic fractions were analyzed for cytochrome c release with Western blot.
The kinase that phosphorylates PLS3 was then sought. Based on the observation that PLS1 is phosphorylated by […], we studied whether PLS3 is the mitochondrial substrate of PKC-δ. It was first reconfirmed that PKC-δ is essential for UV-induced apoptosis by blocking PKC-δ with a PKC-δ inhibitor, rottlerin, in our system. The HEK293 cells were fractionated and the isolated mitochondria and cytosols were analyzed for cytochrome c release by Western blot. This study confirmed that cytochrome c was released to cytosol after UV irradiation, and this release was inhibited by rottlerin (FIG. 20b). […]

293-vector cells = assay: Mitochondrial potential by Rhodamine 123 flow cytometry; assay type: cell-based; conditions: antimycin A for 6 h
Procedure: FIG. 14. Overexpression of mutant PLS3 reduces mitochondrial mass, potential, and cytochrome c and CL content. […] C. […] The blot was re-probed with antibodies to VDAC and tubulin for controls. […] Error bars, SDs from five independent measurements. E. Quantitative PCR analysis of mitochondrial NADH dehydrogenase in 400 ng of whole cell genomic DNA. […] The crossing points (in cycle numbers) of the three cells are indicated.

CCCCCCCCCCCCCC(=O)O[C@@H]1[C@@H](C)[C@@]2(O)[C@@H](C=C(CO)C[C@]3(O)C(=O)C(C)=C[C@@H]23)[C@@H]2C(C)(C)[C@]12OC(C)=O [PMA]
apoptosis (TUNEL) (HeLa-control cells): did not induce any apoptosis
apoptosis (TUNEL) (HeLa-PLS3 cells): shifted the curve to right

PLS3: Recombinant phospholipid scramblase 3 protein; purified PLS3β in transfer assay, His-tagged PLS3 in kinase assay
increase of total amount of cardiolipin in recipient mitochondria (mouse liver mitochondria): 35%

CC(=O)c1c(O)c(C)c(O)c(Cc2c(O)c3c(c(C(=O)/C=C/c4ccccc4)c2O)OC(C)(C)C=C3)c1O [rottlerin]
amount of PKC-δ translocated to mitochondria (HEK293 cells; UV plus rottlerin, washed mitochondria, 100 nM PMA, cytochrome c release): decreased
cytochrome c release to cytosol after UV irradiation (HEK293 cells; rottlerin 10 μM, harvested 4 hours after UV): inhibited

antimycin A
mitochondrial potential (Rhodamine 123) (293-vector cells): decrease of mitochondrial potential
